This is an account of results in patent US20230053307A1, “METHOD FOR PREVENTING OR TREATING SKIN DISORDERS AND CONDITIONS” (BUDDHIST TZU CHI MEDICAL FOUNDATION, priority 2021, published 2023).

In assay [1] the test system is primary human keratinocytes. In words: Western blotting of CKI-treated primary human keratinocytes. Particulars: 72 hours. The class given is cell-based. As for the experimental part: FIGS. 4A to 4G show the effect of CKI treatment on human primary keratinocytes and melanocytes. […] In FIG. 4B, the primary human keratinocytes were treated with indicated concentrations of CKI when the cell confluence was 90%. […] Statistical results from a total of 3 independent experiments were determined with unpaired t-test analysis and shown as mean±SD. “NS” indicates no significant difference and asterisks *** indicates a significant difference with P<0.001. In FIGS. 4D and 4E, the primary melanocytes were cultured in conditional medium that have cultured keratinocytes for 3 days and treated with or without CKI.
FIGS. 7A to 7C show the effects of additional casein kinase 1 inhibitors including A51, CKI7, D4476 and IC261 on the Kit pathway and melanogenesis-related protein expression levels of human keratinocytes.
(§1) Western blot For experiments involving tissues, the tissues were homogenized and lysed in 1x tissue protein extraction reagent (Thermo Fisher) containing protease inhibitor (Millipore) and kept on ice; for experiments involving cells, cell pellet was collected and lysed in 1x radioimmunoprecipitation assay (RIPA) lysis buffer containing protease inhibitor (Millipore) and kept on ice. The total protein concentration was determined using Protein Assay Dye Reagent Concentrate (Bio-Rad) following manufacturer's instruction with a microplate reader. Sample was diluted in SDS-PAGE Sample Buffer (Bio-Rad) and heated at 95° C. for 5 minutes. The protein sample was then resolved on SDS-PAGE gels (TGX FastCast acrylamide solutions, Bio-Rad) and transferred onto poly(vinylidene fluoride) (PVDF) membranes (Millipore). 5% BSA was used, and then the membranes were incubated with primary antibodies overnight at 4° C. The membranes were then washed by Tris-buffered saline with Tween 20 (TBST) and incubated with secondary antibodies for 1 hour at room temperature. The signal was detected using iBright FL1000 Imaging System from Thermo Fisher Scientific.
Cell culture Human keratinocyte and melanocyte were cultured from human foreskin. The keratinocyte was cultured with keratinocyte serum-free medium (SFM), or K-SFM, which is a complete serum-free medium and supplemented with human recombinant epidermal growth factor (rEGF) and bovine pituitary extract (BPE) (Gibco, 17005042) at the time of use. Melanocyte was cultured with Medium 254 containing human melanocyte growth supplement (HMGS) (Gibco, M254500). The culture was maintained at 37° C. and in 5% CO2. Keratinocyte Kit ligand secretion was detected by Human SCF ELISA Kit (Abcam, ab176109). All of the procedures followed manufacturer's instruction.
In skin, keratinocyte interacts with melanocyte through a system of paracrine growth factors and cell-cell adhesion junction for a stable skin homeostatic balance. In this embodiment, primary cultures of keratinocyte and melanocyte were prepared from human foreskin. The primary human keratinocytes were treated with indicated concentration of CKI for 3 days, and the conditional medium was collected and used to treat melanocytes for 3 days.
Additional casein kinase 1 inhibitors were used to examine their effects on KitL production with human keratinocyte cultures. […] A51 was a CKI gifted by Dr. Yinon Ben-Neriah, and […] (Sigma-Aldrich D1944) and IC261 (Sigma-Aldrich 400090) were commercially available and were dissolved in DMSO. CKI7 was another CKI commercially available (Sigma-Aldrich C0742) and was dissolved in ddH20. […] Expression of KitL was increased in CKI, CKI7, D4476 and IC261 after treatment for 72 hours, compared to DMSO or mock. Mock was a control in the experiment where the keratinocytes were neither treated with DMSO or any CKI. In FIG. 7B, it was further shown that D4476 treatment at concentrations of from 500 nM to 5,000 nM on human keratinocytes increases the expression of p53 and KitL […] in treated keratinocytes after 72 hours. […]
Background: In western blotting, separated proteins are transferred to a membrane and probed.

Assay [2] has as its system p53 and pigmentation-related proteins. The experiment in a line: Western blotting of human skin explant epidermis. In kind it is cell-based. Particulars: 0.1 mg of D4476, human skin explant, vs control.
Source text: (§2) The numbers of Melan-A+cells and Trip-1+cells and also the relative melanin intensity in the control or CKI treatment groups are quantified in the histograms. […] The asterisks *** indicated a significant difference with P<0.001.
In addition, the epidermis and dermis were separated by thermolysin. The total proteins of epidermis were extracted by T-PER Tissue Protein Extraction Reagent (78510, Thermo Fisher) for Western blotting analysis.
as §1

For the next assay, the system named is CPD. In words: UVB-induced CPD in human skin explants. In kind it is cell-based. Conditions: 0.08 mg of D4476; 6 hours after 1,000 mJ/cm^2 UVB. As for the experimental part:
(§3) The specimen was cultured in the 12-well plate (N=5). After 24 hours of explant culture, the specimen was treated with 0.01 mg CKI, and another treatment of 0.01 mg CKI was given two days thereafter, as shown in the timeline. On the 5th day, the specimens were exposed under 1 J/cm^2 UVB light. Samples were harvested 6 hours later. […] Moreover, frozen embedding in OCT was also made for IHC analysis for Melan-A and Trp-1 labelling.
as §2
(§4) FIGS. 6A to 6E show the UV protection effect of topical treatment of another CKI, D4476, on human skin explants. […] FIGS. 6C and 6D show the Western blotting analysis results and the quantitated amount, respectively, of the expression levels of proteins in the c-Kit pathway and melanogenesis-related protein.
In the immunohistochemical analysis shown in FIG. 3C, both Melan-A and Trp-1, the markers for melanocyte, were found increased in the staining. […] In addition, human skin explants after topical CKI treatment were exposed to 1 J/cm^2 UVB irradiation, and collected for CPD analysis 6 hours later. […]

The subject of assay [3] is KitL/c-Kit pathway and melanocyte-related targets. The experiment in a line: Western blotting of ear skin, MC1R mutant mice. In kind it is in vivo, mouse. Particulars: topical, total 0.24 mg over 2 weeks, ear skin at 3rd week. As for the experimental part:
FIGS. 2A to 2L show the effects of CK1α ablation in keratinocytes of MC1R mutant mice and the UV protection effect of topical CKI treatment on MC1R mutant mice. […] The skin samples were treated as illustrated in the scheme and harvested after 24 hours of 750 mJ/cm^2 UVB irradiation on day 21 and stained with anti-CPD antibody for examining the DNA damage.
FIGS. 5A and 5B show the effect of D4476 and IC261 treatments on MC1R mutant mice.
as §1

The next assay has as its system human foreskin explants. In words: Human skin explant: colour, Fontana-Masson staining, Melan-A and Trp-1 IHC. The class given is cell-based. Particulars: D4476, human skin explant. As for the experimental part: as §3, §4
For topical use on human skin explant, a CKI solution containing 1 mg in 6 μL DMSO was diluted with 594 μL phosphate buffered saline (PBS) for further use. The final working concentration is 0.01 mg/6 μL.
Human skin explant The human foreskins were used for in vitro explant culture experiments. […]
Primary antibody was applied in 4° C. overnight, and then incubated with secondary antibody at room temperature for 30 minutes. The signal was detected by AEC+Substrate-Chromogen (K346111, Dako) or Dako REAL EnVDetectSys Perox/DAB+, Rb/M (K500711, Dako), counterstained with hematoxylin and mounted with either aqueous- or organic-based medium. […]

The mark [4] stands for this setting: compared to DMSO or mock (FIG. 7A).
Setting [5] is: 500 nM to 5,000 nM, dose-independently.

As for `NCCNS(=O)(=O)c1ccc(Cl)c2ccncc12` [CKI7], the “expression of KitL” value in assay [1] (setting [4]) is “increased”.

With `NC(=O)c1ccc(-c2nc(-c3ccc4c(c3)OCCO4)c(-c3ccccn3)[nH]2)cc1` [D4476], in assay [1] (setting [5]), the “expression of KitL” value is reported as “increases” and the “expression of p53” value is “increases”. Further, the “expression of KitL” value in assay [1] (setting [4]) is on record as “increased”. For the same molecule, in assay [2], the “KitL (Western blotting)” value is “increased”, the “c-Kit (Western blotting)” value is recorded as “increased”, the “p53 (Western blotting)” value was “stabilization” and the “tyrosinase (Western blotting)” value is given as “increased”. Further, the “β-catenin (Western blotting)” value in assay [2] is “stabilization”. Besides, in the assay with CPD, the CPD staining result is given as “reduced”. Further, in assay [3], the “expression of Kit-L” value is “increased”, the “expression of c-Kit” value is “increased” and the expression of tyrosinase entry is reported as “increased”. The “melanin intensity in epidermis (Fontana-Masson staining)” value with human foreskin explants is “increased”.

For `COc1cc(OC)c(C=C2C(O)=Nc3ccccc32)c(OC)c1` [IC261], in assay [1] (setting [5]), the “expression of KitL” value is given as “increases” and the “expression of p53” value was “increases”. The “expression of KitL” value in assay [1] (setting [4]) is listed as “increased”. In addition, in assay [3], the “expression of Kit-L” value was “increased”, the “expression of c-Kit” value is “increased” and the expression of tyrosinase entry is “increased”.
